pIC50: −log10 of the molar value. Where two headings read alike, the source gives them in different places.
Key:
MAO-B [1] = target: T1, MAO-B (Rattus norvegicus, UniProt P19643); assay: Inhibition of MAO activity in vitro, PEA as substrate; format: biochemical; design: The MAO enzyme source was a homogenate of rat brain in 0.3M sucrose; from tissue; host or cells: rat brain homogenate, 600 g supernatant
T1 sequence (P19643 1-520): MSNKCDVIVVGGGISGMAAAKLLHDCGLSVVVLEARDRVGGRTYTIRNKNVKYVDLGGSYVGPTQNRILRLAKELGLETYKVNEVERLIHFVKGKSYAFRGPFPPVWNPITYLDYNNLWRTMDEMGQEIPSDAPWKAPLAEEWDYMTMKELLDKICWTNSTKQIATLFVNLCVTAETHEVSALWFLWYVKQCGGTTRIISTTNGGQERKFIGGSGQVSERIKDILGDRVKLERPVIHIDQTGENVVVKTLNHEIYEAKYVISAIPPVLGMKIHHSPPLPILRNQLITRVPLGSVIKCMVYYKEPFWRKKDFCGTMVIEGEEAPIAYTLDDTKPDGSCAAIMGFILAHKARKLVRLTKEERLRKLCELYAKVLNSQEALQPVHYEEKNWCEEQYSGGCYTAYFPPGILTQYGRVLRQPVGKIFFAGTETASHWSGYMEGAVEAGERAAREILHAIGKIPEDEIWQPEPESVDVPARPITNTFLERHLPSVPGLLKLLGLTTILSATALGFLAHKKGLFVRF
Experimental: (§1) Substrate concentrations used were 50 μM (PEA) and 1 mM (5-HT).

[2] = target: T2, Human erythrocyte acetylcholinesterase (Homo sapiens, UniProt P22303); assay: biochemical; format: biochemical
T2 construct: Human erythrocyte acetylcholinesterase (type XIII, Sigma Israel); purchased Sigma Israel type XIII; host or cells: human erythrocytes
Experimental: Human erythrocyte acetylcholinesterase (type XIII, Sigma Israel), was prepared in a stock solution of 1 U/ml, containing Triton (1%) and bovine serum albumin (0.05%) in phosphate buffer (pH 8). The enzyme (0.05U) was incubated with 3-5 different concentrations of test compound (in triplicate) for periods of from 15 to 60 minutes at 37° C. […] The percentage inhibition of AChE by each concentration of drug is calculated by comparison with that of enzyme in the absence of drug.

whole brain AChE = target: T3, whole brain AChE (Mus musculus, UniProt P21836); conditions: for AChE Inhibition Ex vivo ED50 (AC): mice, whole brain, at peak of activity; for AChE Inhibition Time to peak activity t / AChE Inhibition Time to return to 50% of peak t: mouse, in vivo
T3 sequence (P21836 32-614): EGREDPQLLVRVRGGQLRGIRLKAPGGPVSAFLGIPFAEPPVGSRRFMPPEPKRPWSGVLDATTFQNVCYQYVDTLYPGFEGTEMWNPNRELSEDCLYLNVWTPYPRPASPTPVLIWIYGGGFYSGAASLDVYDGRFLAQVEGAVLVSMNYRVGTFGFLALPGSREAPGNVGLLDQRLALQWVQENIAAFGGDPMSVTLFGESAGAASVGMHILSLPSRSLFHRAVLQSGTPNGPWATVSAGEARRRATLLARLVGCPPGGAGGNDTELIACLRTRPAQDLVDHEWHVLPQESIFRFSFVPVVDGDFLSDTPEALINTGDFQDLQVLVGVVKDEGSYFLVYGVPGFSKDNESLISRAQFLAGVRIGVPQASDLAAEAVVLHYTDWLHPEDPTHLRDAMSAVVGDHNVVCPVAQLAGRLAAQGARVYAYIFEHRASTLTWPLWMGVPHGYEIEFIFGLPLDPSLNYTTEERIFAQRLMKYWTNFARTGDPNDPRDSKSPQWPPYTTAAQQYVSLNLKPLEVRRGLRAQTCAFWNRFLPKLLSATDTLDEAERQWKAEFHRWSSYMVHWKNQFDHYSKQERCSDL
Experimental: Test drugs or saline were administered sub-cutaneously to male mice (Sabra strain, 28-35 g). […] The mice were sacrificed 15, 30, 50, 70, 90, 120 or 180 minutes after drug administration, the brains rapidly removed (minus cerebellum), weighed and homogenized in 0.1 M phosphate buffer, pH 8.0, containing Triton (1 mg/100 g tissue) and centrifuged to remove cell debris. Aliquots (25 μl) of the supernatant were then incubated with acetylthiocholine and DTNB. AChE activity was measured as described above. The % inhibition of whole brain AChE by each dose of drug was calculated by comparison with enzyme activity from 3 saline treated control mice run at the same time.

MAO-A [3] = target: T4, MAO-A (Rattus norvegicus, UniProt P21396); assay: Inhibition of MAO activity in vitro, 5-HT as substrate; format: biochemical; design: The MAO enzyme source was a homogenate of rat brain in 0.3M sucrose; from tissue; host or cells: rat brain homogenate, 600 g supernatant; conditions: 5-HT substrate
T4 sequence (P21396 1-526): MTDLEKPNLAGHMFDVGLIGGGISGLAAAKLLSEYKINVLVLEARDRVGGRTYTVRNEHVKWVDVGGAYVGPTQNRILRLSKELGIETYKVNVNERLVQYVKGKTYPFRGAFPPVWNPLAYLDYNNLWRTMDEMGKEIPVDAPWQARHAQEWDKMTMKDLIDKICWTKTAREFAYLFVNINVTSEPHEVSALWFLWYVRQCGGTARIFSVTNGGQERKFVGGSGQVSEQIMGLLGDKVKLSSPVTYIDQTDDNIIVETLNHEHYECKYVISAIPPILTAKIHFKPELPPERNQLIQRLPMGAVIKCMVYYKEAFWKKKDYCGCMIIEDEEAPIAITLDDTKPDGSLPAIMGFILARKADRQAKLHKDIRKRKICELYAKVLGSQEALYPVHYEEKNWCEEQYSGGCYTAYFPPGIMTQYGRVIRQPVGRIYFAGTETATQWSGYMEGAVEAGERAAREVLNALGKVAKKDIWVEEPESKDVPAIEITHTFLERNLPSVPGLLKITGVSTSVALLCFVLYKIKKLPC
Experimental: as §1

MAO-B [4] = target: T5, MAO-B (Mus musculus, UniProt Q8BW75); assay: Inhibition of MAO activity ex vivo (brain); format: in vivo, mice; conditions: mice, brain tissue
T5 construct: from tissue; host or cells: mouse brain
T5 sequence (Q8BW75 1-520): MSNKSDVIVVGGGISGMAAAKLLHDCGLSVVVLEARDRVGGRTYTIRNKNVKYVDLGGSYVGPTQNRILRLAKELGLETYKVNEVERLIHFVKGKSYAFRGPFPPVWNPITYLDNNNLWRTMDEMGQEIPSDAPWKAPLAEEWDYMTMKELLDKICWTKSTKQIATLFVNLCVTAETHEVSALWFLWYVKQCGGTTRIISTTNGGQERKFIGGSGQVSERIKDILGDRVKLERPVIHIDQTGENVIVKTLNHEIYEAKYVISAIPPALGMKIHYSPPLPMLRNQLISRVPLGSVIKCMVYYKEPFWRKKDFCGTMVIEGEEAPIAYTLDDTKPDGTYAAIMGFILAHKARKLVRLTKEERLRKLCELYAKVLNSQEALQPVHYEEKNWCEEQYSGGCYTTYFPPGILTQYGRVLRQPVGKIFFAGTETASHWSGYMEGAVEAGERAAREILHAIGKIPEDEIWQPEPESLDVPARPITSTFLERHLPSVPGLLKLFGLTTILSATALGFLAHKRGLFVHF
Experimental: as §1
(§2) Male Sabra mice, weighing 45-50 g were injected with test compound solutions (prepared in 0.9% saline). Each dose was administered to two or three mice. The mice were sacrificed two hours after drug administration or at a time corresponding to the peak AChE inhibition time (see Table 11). The brain and liver were rapidly dissected and stored in appropriate vials on ice. The tissues were weighed, diluted to ½ in sucrose 0.3M and stored at −20° C. before performance of the MAO assay described above. The results given in Table 11 relate to measurements made on brain tissue only.

MAO-A [5] = target: T6, MAO-A (Mus musculus, UniProt Q64133); assay: Inhibition of MAO activity ex vivo (brain); format: in vivo, mice; conditions: mice, brain tissue
T6 construct: from tissue; host or cells: mouse brain
T6 sequence (Q64133 1-526): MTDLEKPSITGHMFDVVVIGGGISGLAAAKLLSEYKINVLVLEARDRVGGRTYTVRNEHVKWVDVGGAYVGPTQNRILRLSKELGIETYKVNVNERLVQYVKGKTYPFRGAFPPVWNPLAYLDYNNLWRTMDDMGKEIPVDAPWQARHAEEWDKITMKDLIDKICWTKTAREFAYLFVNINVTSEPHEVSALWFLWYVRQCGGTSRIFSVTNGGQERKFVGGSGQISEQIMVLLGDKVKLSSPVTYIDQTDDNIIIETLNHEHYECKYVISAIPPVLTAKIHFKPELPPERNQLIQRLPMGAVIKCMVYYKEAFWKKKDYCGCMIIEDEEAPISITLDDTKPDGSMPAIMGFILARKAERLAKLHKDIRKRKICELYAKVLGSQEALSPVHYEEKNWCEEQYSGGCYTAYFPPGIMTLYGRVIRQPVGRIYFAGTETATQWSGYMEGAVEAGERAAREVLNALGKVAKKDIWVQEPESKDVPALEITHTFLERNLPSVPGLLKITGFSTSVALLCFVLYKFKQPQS
Experimental: as §1, §2

[6] = rat brain homogenate, read-out: MAO-B Inhibition In vitro IC50
[7] = rat brain homogenate, read-out: MAO-A Inhibition In vitro IC50
[8] = MAO-B Inhibition In vitro IC50, rat brain homogenate
[9] = MAO-A Inhibition In vitro IC50, rat brain homogenate

T2 sequence (P22303 32-617 isoform P22303-2 limits assumed): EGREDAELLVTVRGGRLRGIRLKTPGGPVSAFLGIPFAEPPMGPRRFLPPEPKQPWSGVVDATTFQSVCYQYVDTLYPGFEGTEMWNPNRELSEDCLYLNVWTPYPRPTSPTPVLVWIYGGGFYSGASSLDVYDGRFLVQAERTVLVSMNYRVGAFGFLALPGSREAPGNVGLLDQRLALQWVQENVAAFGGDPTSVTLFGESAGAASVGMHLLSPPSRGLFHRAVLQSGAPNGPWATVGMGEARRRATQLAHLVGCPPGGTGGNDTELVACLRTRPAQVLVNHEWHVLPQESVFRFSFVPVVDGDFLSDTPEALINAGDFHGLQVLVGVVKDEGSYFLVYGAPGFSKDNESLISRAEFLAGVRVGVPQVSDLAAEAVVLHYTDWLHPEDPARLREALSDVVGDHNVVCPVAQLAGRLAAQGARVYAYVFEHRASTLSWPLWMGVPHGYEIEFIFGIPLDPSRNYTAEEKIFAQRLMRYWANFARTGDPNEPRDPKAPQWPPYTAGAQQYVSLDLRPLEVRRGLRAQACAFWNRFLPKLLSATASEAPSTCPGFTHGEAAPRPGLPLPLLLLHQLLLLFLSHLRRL
Experimental for mice: Therapeutic Ratio was calculated as LD50 divided by ED50 of ex vivo acetylcholine esterase inhibition.

Row | Compound | pIC50 (MAO-B [1]; [6]) | pIC50 ([2]; AChE Inhibition In vitro IC50) | AChE Inhibition Ex vivo ED50 (AC) (whole brain AChE) | pIC50 (MAO-A [3]; [7]) | MAO-B Inhibition Ex vivo ED50 (MAO-B [4]) | MAO-A Inhibition Ex vivo ED50 (MAO-A [5]) | pIC50 (MAO-B [1]; [8]) | AChE Inhibition Time to peak activity t (whole brain AChE) | Acute Toxicity LD50 (LD) (mice; mouse, in vivo) | Therapeutic Ratio LD/AC (mice; mouse, in vivo) | pIC50 (MAO-A [3]; [9]) | AChE Inhibition Time to return to 50% of peak t (whole brain AChE) | Acute Toxicity LD50 (LD) (mice; mice, within 6 hours after administration) | pIC50 ([2]; read-out: AChE Inhibition In vitro IC50)
1 | C#CCNC1CCc2ccc(OC(=O)N(C)C3CCCCC3)cc21 (centres unmarked) [Compound 38] | 5.00 | 4.48 | >1000 µmol/kg | 3.77 | >400 µmol/kg | >400 µmol/kg |  |  |  |  |  |  |  | 
2 | C#CCNC1CCc2ccc(OC(=O)N(C)CCC)cc21 (centres unmarked) [Compound 26] |  | 4.77 | 120 µmol/kg |  | 333 µmol/kg | >>440 μmoles/kg | 3.58 | 30 to 60 min | 1200 µmol/kg | 9 | 3.94 |  |  | 
3 | C#CCNC1CCc2c(OC(=O)N(C)CC)cccc21 (centres unmarked) [Compound 35] |  | 5.66 | 10 µmol/kg |  |  |  | 4.00 | 60 min | 33 µmol/kg | 3.3 | > 6.00 |  |  | 
4 | C#CCNC1CCc2c(OC(=O)N(C)C)cccc21 (centres unmarked) [Compound 34] |  | 7.34 | 0.65 µmol/kg |  |  |  | 4.00 | 30 min | 3.7 µmol/kg | 5.7 | 6.30 |  |  | 
5 | C#CCN(C)C1CCc2cccc(OC(=O)N(C)C)c21 (centres unmarked) [Compound 32] |  | 5.43 | 7.8 µmol/kg |  | >>20 μmoles/kg | >>20 μmoles/kg | 3.30 | 15 min | 68 µmol/kg | 9.0 | 3.72 |  |  | 
6 | CNC1CCc2ccc(OC(=O)N(C)C)cc21 (centres unmarked) [Compound 8] |  |  | 10.0 µmol/kg | 4.30 | >>50 μmoles/kg | >>50 μmoles/kg |  | 15 to 30 min |  |  |  | >60 min | 87 µmol/kg | 
7 | C#CCNC1CCc2ccc(OC(=O)N(C)CCCC)cc21 (centres unmarked) [Compound 81] |  | 4.94 | 40 µmol/kg |  | >>100 μmoles/kg | >>100 μmoles/kg |  | 90 min | 920 µmol/kg | 23 |  | >120 min |  | 
8 | C#CCNC1CCc2ccc(OC(=O)N(C)c3ccc(OC)cc3)cc21 (centres unmarked) [Compound 61] | 3.30 | 6.12 | 47 µmol/kg | 3.15 | >100 µmol/kg | >100 µmol/kg |  |  |  |  |  |  |  | 
9 | C#CCN(CC)C1CCc2ccc(OC(=O)N(C)C)cc21 (centres unmarked) [Compound 31] |  | 5.00 | 110 µmol/kg |  | >100 µmol/kg | >100 µmol/kg | < 3.00 |  |  |  | < 3.00 |  |  | 
10 | CCNC1CCc2ccc(OC(=O)N(C)C)cc21 (centres unmarked) [Compound 7] |  |  |  |  |  |  | < 3.00 |  |  |  | 3.22 |  |  | 
11 | C#CCNC1CCc2ccc(OC(=O)NCCC)cc21 (centres unmarked) [Compound 57] | 4.60 |  | 70 µmol/kg |  |  |  |  |  |  |  | 4.05 |  |  | 5.62
12 | C#CCNC1CCc2ccc(OC(=O)N(C)C)cc21 (centres unmarked) [Compound 23] |  |  | 22.4 µmol/kg |  |  |  | 3.22 |  | 255 µmol/kg |  | 3.10 | 70 min |  | 
13 | C#CCNC1CCc2ccc(OC(=O)N(C)c3ccccc3)cc21 (centres unmarked) [Compound 62] | 4.00 | 6.24 | 290 µmol/kg | 4.10 | >>200 μmoles/kg | >>200 μmoles/kg |  | 60 min |  |  |  |  |  | 
